Measurements as given in US20250388571A1, “AMP-ACTIVATED PROTEIN KINASE MODULATOR COMPOUNDS AND USES THEREOF” (Biolexis Therapeutics, Inc., priority 2024, published 2025).

Legend:
AMPK (A2/B2/G3) = AMPK (A2/B2/G3) (Homo sapiens, UniProt O43741+P54646+Q9UGI9); assay: AMPK kinase binding activity in activation mode (AC50); assay type: biochemical
Description: In Vitro AMPK Kinase Inhibition Experiments

AMPK (A2/B1/G3) = AMPK (A2/B1/G3) (Homo sapiens, UniProt P54646+Q9UGI9+Q9Y478); assay: as above; assay type: biochemical
AMPK (A2/B1/G1) = AMPK (A2/B1/G1) (Homo sapiens, UniProt P54619+P54646+Q9Y478); assay: as above; assay type: biochemical
[1] = tested on: human cardiomyocyte cells (HCM); assay: Glucose uptake assay, human cardiomyocyte cells; assay type: cell-based; conditions: for AMPK activation activity (glucose uptake assay): 10 doses 100 μM to 0.005 μM
Protocol: FIGS. 17-19 show results for glucose update assays in human cardiomyocyte cells (“HCM”-healthy donor) (Promocell, cat. no. C-12810) when treated with compound I-11 (FIG. 17), compound I-7 (FIG. 18), and PF-06409577 (FIG. 19). After recovered HCM cells for 4 days, cells were starved for 3 hours in high glucose DMEM without FBS, treated with the components noted above in DMEM without FBS/glucose for 1 hour, and glucose uptake was detected using a glucose uptake kit (Promega). […] The bars show (from left to right) concentrations of 100 μM, 33 μM, 11 μM, 3.7 μM, 1.23 μM, 0.41 μM, 0.14 μM, 0.045 μM, 0.015 μM, 0.005 μM, 0 μM, and insulin.
FIGS. 20-22 show results for glucose update assays in human cardiomyocyte cells (“HCM”-diabetic donor) (Promocell, cat. no. C-12810) when treated with compound I-11 (FIG. 20), compound I-7 (FIG. 21), and PF-06409577 (FIG. 22). After recovered HCM cells for 4 days, cells were starved for 3 hours in high glucose DMEM without FBS, treated with the components noted above in DMEM without FBS/glucose for 1 hour, and glucose uptake was detected using a glucose uptake kit (Promega). […] The bars show (from left to right) concentrations of 100 μM, 33 μM, 11 μM, 3.7 μM, 1.23 μM, 0.41 μM, 0.14 μM, 0.045 μM, 0.015 μM, 0.005 μM, 0 μM, and insulin.
(§1) Human skeletal myoblasts were obtained (Thermofisher; BYU) and cultured in DMEM/F12 medium with 10% FBS. For differentiation, 2% horse serum low glucose DMEM medium was employed for 72 hours. Human cardiomyocytes cells (HCM cells; Promocell) were cultured in myocyte growth medium (Promocell). Human preadipocyte HWP-c cells (Promocell) were obtained from upper arm of diabetic II donor. Human preadipocyte HWP-c cells (Promocell) were obtained from abdomen of diabetic II donor. For differentiating human preadipocytes, cells were cultured in preadipocyte growth medium to total confluency stage. The growth medium was replaced with preadipocyte differentiation medium for 72 hours, then changed to PromoCell adipocyte nutrition medium to complete the differentiation process. THLE-2 cells were cultured in BEGM from Lonza/Clonetics Corporation, Walkersville, MD 21793 (BEGM Bullet Kit; CC3170). HepG2, L6 and C2Cl2 cells were cultured in EMEM medium.
(§2) After differentiation myoblasts, preadipocyte cells were starved by removing the medium and adding 100 μL DMEM without serum. The medium was then replaced with 100 μL DMEM±1 μM insulin at indicated concentration of representative compounds without serum or glucose. The cells were then incubated for 1 hour at 37° C. in 5% CO2. The cells were then removed from the medium and 50 μL of 0.1 mM 2DG in PBS was added. Cells were incubated for 30 minutes at 25° C. 25 μL of Stop Buffer was added and samples were mixed. 25 μL of Neutralization Buffer was then added and mixed. 100 μL of 2DG6P Detection Reagent was then added and mixed. Samples were then incubated for 1 hour at 25° C. Luminescence was then recorded with 0.3-1 second integration on a luminometer.

[2] = tested on: human skeletal muscle cells (HSKM cells); assay: Glucose uptake assay, human skeletal muscle cells; assay type: cell-based; conditions: 100 μM to 0.005 μM, 1 hour
Protocol: FIGS. 1-4 show results for cells treated with differing doses of representative compounds of Structure (I) (i.e., compound I-11 in FIG. 1 and compound I-7 in FIG. 2) as well reference compounds (i.e., PF-06409577 in FIG. 3 and MK-8722 in FIG. 4). […] Cells were starved for 3 hours in high glucose DMEM without FBS, then treated with indicated compounds in DMEM without FBS/glucose for 1 hour, and glucose uptake was detected using an uptake glucose kit (Promega). The bars show (from left to right) concentrations of 100 μM, 33 μM, 11 μM, 3.7 μM, 1.23 μM, 0.41 μM, 0.14 μM, 0.045 μM, 0.015 μM, 0.005 μM, 0 μM, and insulin.
as §1, §2

Sequence of AMPK (A2/B1/G3) (P54646 whole entry): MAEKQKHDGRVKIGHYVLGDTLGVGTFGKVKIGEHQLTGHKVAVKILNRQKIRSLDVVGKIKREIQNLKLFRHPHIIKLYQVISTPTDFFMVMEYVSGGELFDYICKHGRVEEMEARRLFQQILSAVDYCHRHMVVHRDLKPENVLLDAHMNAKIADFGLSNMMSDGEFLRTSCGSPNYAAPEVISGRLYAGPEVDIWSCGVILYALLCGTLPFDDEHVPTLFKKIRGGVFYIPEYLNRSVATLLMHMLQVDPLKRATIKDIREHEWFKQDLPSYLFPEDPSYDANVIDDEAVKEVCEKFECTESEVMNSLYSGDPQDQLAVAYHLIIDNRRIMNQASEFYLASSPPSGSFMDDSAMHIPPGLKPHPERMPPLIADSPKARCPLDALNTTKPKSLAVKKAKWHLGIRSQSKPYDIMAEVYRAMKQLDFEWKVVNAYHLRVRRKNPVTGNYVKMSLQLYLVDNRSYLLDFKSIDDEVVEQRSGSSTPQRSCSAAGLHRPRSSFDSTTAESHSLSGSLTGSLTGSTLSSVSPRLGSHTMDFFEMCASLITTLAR
Sequence of AMPK (A2/B1/G3) (Q9Y478 whole entry): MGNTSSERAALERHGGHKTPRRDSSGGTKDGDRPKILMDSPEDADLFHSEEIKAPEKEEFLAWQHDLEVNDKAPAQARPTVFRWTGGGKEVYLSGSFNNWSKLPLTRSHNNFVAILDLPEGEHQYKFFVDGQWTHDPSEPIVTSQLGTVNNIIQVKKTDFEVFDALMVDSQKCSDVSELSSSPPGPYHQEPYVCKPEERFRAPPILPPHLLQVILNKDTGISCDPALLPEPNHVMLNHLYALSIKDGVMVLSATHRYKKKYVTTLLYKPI
Sequence of AMPK (A2/B1/G3) (Q9UGI9 whole entry): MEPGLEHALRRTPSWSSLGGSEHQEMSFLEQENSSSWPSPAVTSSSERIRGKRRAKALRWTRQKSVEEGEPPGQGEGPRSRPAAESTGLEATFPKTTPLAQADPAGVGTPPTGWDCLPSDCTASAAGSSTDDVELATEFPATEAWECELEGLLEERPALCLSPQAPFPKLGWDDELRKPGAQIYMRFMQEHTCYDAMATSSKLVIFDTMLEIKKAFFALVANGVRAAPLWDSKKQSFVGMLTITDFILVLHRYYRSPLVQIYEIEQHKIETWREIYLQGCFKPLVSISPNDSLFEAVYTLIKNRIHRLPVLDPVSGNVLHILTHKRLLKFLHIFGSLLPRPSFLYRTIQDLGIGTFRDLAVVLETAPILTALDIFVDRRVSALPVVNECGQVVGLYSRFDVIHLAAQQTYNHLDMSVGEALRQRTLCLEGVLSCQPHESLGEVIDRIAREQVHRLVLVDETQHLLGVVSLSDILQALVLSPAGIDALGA
Sequence of AMPK (A2/B2/G3) (P54646 whole entry): as the sequence (P54646 whole entry) above
Sequence of AMPK (A2/B2/G3) (O43741 whole entry): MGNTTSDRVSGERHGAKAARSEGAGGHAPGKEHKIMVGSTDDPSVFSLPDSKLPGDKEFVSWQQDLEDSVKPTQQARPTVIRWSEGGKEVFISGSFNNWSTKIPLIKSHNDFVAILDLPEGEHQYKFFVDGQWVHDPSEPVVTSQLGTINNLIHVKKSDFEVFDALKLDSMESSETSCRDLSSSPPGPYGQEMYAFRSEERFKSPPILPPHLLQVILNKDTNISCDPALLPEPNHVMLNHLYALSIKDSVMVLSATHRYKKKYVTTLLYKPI
Sequence of AMPK (A2/B2/G3) (Q9UGI9 whole entry): as the sequence (Q9UGI9 whole entry) above
Sequence of AMPK (A2/B1/G1) (P54646 whole entry): as the sequence (P54646 whole entry) above
Sequence of AMPK (A2/B1/G1) (Q9Y478 whole entry): as the sequence (Q9Y478 whole entry) above
Sequence of AMPK (A2/B1/G1) (P54619 whole entry): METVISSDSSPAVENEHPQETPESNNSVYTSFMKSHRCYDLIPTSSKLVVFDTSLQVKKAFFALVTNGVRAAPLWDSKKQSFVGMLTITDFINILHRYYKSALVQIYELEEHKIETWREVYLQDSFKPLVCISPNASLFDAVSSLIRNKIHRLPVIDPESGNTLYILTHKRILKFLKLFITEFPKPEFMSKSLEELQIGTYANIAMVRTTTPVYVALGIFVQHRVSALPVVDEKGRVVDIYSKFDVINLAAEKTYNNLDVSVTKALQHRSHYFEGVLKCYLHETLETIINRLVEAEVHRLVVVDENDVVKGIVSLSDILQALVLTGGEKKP

Compound	AC50 (AMPK (A2/B2/G3))	AC50 (AMPK (A2/B1/G3))	further results
1-(6-chloro-5-(4-(1- hydroxycyclobutyl) phenyl)- 1H-indol-3-yl)-4-methyl-4,5- dihydro-3H-1l6,2,5- thiadiazol-3-one 1-oxide (racemic) [Compound I-2, 1-(6-chloro-5-(4-(1-hydroxycyclobutyl)phenyl)-1H-indol-3-yl)-4-methyl-4,5-dihydro-3H-1l6,2,5-thiadiazol-3-one 1-oxide (racemic)]		10 to 500 nM	
C[C@@H]1NS(=O)(c2c[nH]c3cc(Cl)c(-c4ccc(C5(O)CCC5)cc4)cc23)=NC1=O (stereo partly drawn) [Compound I-3, (4S)-1-(6-chloro-5-(4-(1-hydroxycyclobutyl)phenyl)-1H-indol-3-yl)-4-methyl-4,5-dihydro-3H-1l6,2,5-thiadiazol-3-one 1-oxide]		10 to 500 nM	
O=c1[nH]c(-c2c[nH]c3ncc(-c4ccc(C5(O)CCC5)cc4)cc23)no1 [Compound I-9, 3-(5-(4-(1-hydroxycyclobutyl)phenyl)-1H-pyrrolo[2,3-b]pyridin-3-yl)-1,2,4-oxadiazol-5(4H)-one]		10 to 500 nM	
O=P(O)(O)CSc1c[nH]c2cc(F)c(-c3ccc(N4CC[C@H](O)C4)cc3)c(F)c12 [Compound I-25, (S)-(((4,6-difluoro-5-(4-(3-hydroxypyrrolidin-1-yl)phenyl)-1H-indol-3-yl)thio)methyl)phosphonic acid]	500 to 5000 nM	10 to 500 nM	
O=P(O)(O)CSc1c[nH]c2cc(F)c(-c3ccc(C4(O)CCC4)cc3)cc12 [Compound I-47, (((6-fluoro-5-(4-(1-hydroxycyclobutyl)phenyl)-1H-indol-3-yl)thio)methyl)phosphonic acid]	500 to 5000 nM	10 to 500 nM	
C[C@H]1NS(=O)(c2c[nH]c3cc(Cl)c(-c4ccc(C5(O)CCC5)cc4)cc23)=NC1=O (stereo partly drawn) [Compound I-4, (4R)-1-(6-chloro-5-(4-(1-hydroxycyclobutyl)phenyl)-1H-indol-3-yl)-4-methyl-4,5-dihydro-3H-1l6,2,5-thiadiazol-3-one 1-oxide]		10 to 500 nM	
O=P(O)(O)CSc1c[nH]c2cc(F)c(-c3ccc(N4CC[C@H](O)C4)cc3)cc12 [Compound I-24, (S)-(((6-fluoro-5-(4-(3-hydroxypyrrolidin-1-yl)phenyl)-1H-indol-3-yl)thio)methyl)phosphonic acid]	500 to 5000 nM	10 to 500 nM	
O=c1[nH]c(-c2c[nH]c3cc(F)c(-c4ccc(C5(O)CCC5)cc4)nc23)no1 [Compound I-44, 3-(6-fluoro-5-(4-(1-hydroxycyclobutyl)phenyl)-1H-pyrrolo[3,2-b]pyridin-3-yl)-1,2,4-oxadiazol-5(4H)-one]		500 to 5000 nM	
O=c1[nH]c(-c2c[nH]c3cc(F)c(-c4ccc(C5(O)COC5)nc4)cc23)no1 [Compound I-18, 3-(6-fluoro-5-(6-(3-hydroxyoxetan-3-yl)pyridin-3-yl)-1H-indol-3-yl)-1,2,4-oxadiazol-5(4H)-one]			AC50 (AMPK (A2/B1/G1)): 7.5 to 20 µM
COc1ccc(-c2cc3c(-c4noc(=O)[nH]4)c[nH]c3cc2F)c(OC)n1 [Compound I-14, 3-(5-(2,6-dimethoxypyridin-3-yl)-6-fluoro-1H-indol-3-yl)-1,2,4-oxadiazol-5(4H)-one]		10 to 500 nM	AC50 (AMPK (A2/B1/G1)): 0.01 to 0.5 µM
O=P(O)(O)CSc1c[nH]c2cc(F)c(N3CC[C@H](O)C3)c(F)c12 [Compound I-26, (S)-(((4,6-difluoro-5-(3-hydroxypyrrolidin-1-yl)-1H-indol-3-yl)thio)methyl) phosphonic acid]	500 to 5000 nM	10 to 500 nM	
O=c1[nH]c(-c2c[nH]c3ccc(N4CC[C@H](O)C4)cc23)no1 [Compound I-20, (S)-3-(5-(3-hydroxypyrrolidin-1-yl)-1H-indol-3-yl)-1,2,4-oxadiazol-5(4H)-one]		500 to 5000 nM	AC50 (AMPK (A2/B1/G1)): 5 to 7.5 µM
O=P(O)(O)CSc1c[nH]c2cc(F)c(-c3ccc(C4(O)CCC4)cc3)c(F)c12 [Compound I-46, (((4,6-difluoro-5-(4-(1-hydroxycyclobutyl)phenyl)-1H-indol-3-yl)thio)methyl)phosphonic acid]	500 to 5000 nM	10 to 500 nM	
O=C(O)c1c[nH]c2cc(Cl)c(-c3ccc(C4CCCO4)cc3)cc12 (stereo not drawn) [PF-06409577, reference compound]			AMPK activation activity (glucose uptake assay) ([1]; diabetic donor): significant variability; glucose uptake ([1]; donor not stated): did not induce glucose uptake in dose-dependent manner; AMPK activation activity (glucose uptake assay) ([1]; healthy donor): significant variability; dose dependence of glucose uptake (printed: activation of insulin / AMPK activation) [2]: highly variable
O=c1[nH]c(-c2c[nH]c3cc(F)c(-c4ccc(C5(O)COC5)cc4)nc23)no1 [Compound I-45, 3-(6-fluoro-5-(4-(3-hydroxyoxetan-3-yl)phenyl)-1H-pyrrolo[3,2-b]pyridin-3-yl)-1,2,4-oxadiazol-5(4H)-one]		5000 to 7500 nM	

Second part, led by results:

AC50 (AMPK (A2/B2/G3))	AC50 (AMPK (A2/B1/G3))	Compound	further results
5000 to 7500 nM	≤ 10 nM	Cc1ccc(N2CC(=O)NS2(=O)=O)cc1Oc1nc2nc(-c3ccc(C4(O)CCC4)cc3)c(Cl)cc2[nH]1 [II-21, 5-(3-((6-chloro-5-(4-(1-hydroxycyclobutyl)phenyl)-1H-imidazo[4,5-b]pyridin-2-yl)oxy)-4-methylphenyl)-1,2,5-thiadiazolidin-3-one 1,1-dioxide]	
500 to 5000 nM	≤ 10 nM	O=C1CN(c2c[nH]c3cc(Cl)c(-c4ccc(C5(O)CCC5)cc4)cc23)S(=O)(=O)N1 [Compound I-76, 5-(6-chloro-5-(4-(1-hydroxycyclobutyl)phenyl)-1H-indol-3-yl)-1,2,5-thiadiazolidin-3-one 1,1-dioxide]	
500 to 5000 nM	10 to 500 nM	O=P(O)(O)CSc1c[nH]c2ccc(-c3ccc(C4(O)CCC4)cc3)cc12 [Compound I-48, (((5-(4-(1-hydroxycyclobutyl)phenyl)-1H-indol-3-yl)thio)methyl)phosphonic acid]	
10 to 500 nM	10 to 500 nM	Cc1ccc(N2CC(=O)NS2(=O)=O)cc1Oc1nc2cc(-c3ccc(C4(O)CCC4)cc3)c(F)cc2[nH]1 [II-22, 5-(3-((6-fluoro-5-(4-(1-hydroxycyclobutyl)phenyl)-1H-benzo[d]imidazol-2-yl)oxy)-4-methylphenyl)-1,2,5-thiadiazolidin-3-one 1,1-dioxide]	
10 to 500 nM	≤ 10 nM	Cc1cc2c(cc1Oc1nc3nc(-c4ccc(C5(O)CCC5)cc4)c(Cl)cc3[nH]1)B(O)OC2 [II-26, 6-((6-chloro-5-(4-(1-hydroxycyclobutyl)phenyl)-1H-imidazo[4,5-b]pyridin-2-yl)oxy)-5-methylbenzo[c][1,2]oxaborol-1(3H)-ol]	
500 to 5000 nM	500 to 5000 nM	OB1OCc2ccc(-c3c[nH]c4cc(Cl)c(-c5ccc(C6(O)CCC6)cc5)cc34)cc21 [Compound I-75, 6-(6-chloro-5-(4-(1-hydroxycyclobutyl)phenyl)-1H-indol-3-yl)benzo[c][1,2]oxaborol-1(3H)-ol]	
10 to 500 nM	10 to 500 nM	Cc1ccc(N2CC(=O)NS2(=O)=O)cc1Oc1nc2cc(-c3ccc(C4(O)CCC4)cc3)c(Cl)cc2[nH]1 [II-23, 5-(3-((6-chloro-5-(4-(1-hydroxycyclobutyl)phenyl)-1H-benzo[d]imidazol-2-yl)oxy)-4-methylphenyl)-1,2,5-thiadiazolidin-3-one 1,1-dioxide]	
